Assay results taken from patent US4376076A, “Bis-esters of 1,1-alkanediols with 6-beta-hydroxymethylpenicillanic acid 1,1-dioxide” (priority 1982, dated 1983).

Columns and labels:
[1] = tested on: Enterobacter cloacae 67B009 cell free beta-lactamase; assay: Inhibition of cell-free beta-lactamase (microiodometric), E. cloacae 67B009; type: biochemical; details: for beta-lactamase inhibiting activity, in words: Enterobacter cloacae; for % Inhibition Beta-Lactam Hydrolysis: Penicillin G 33 μM
Method: (§1) The compounds of the present invention are thus evaluated in vitro by the ability of the compound (13) to inhibit the hydrolysis of certain beta-lactam antibiotics by beta-lactamase enzymes. The hydrolysis of ampicillin and penicillin G was determined by the microiodometric method of Novick [Biochem, J. 83, 236 (1962)]. Conditions for this assay are 0.5 M potassium phosphate, pH 6.5 and 37° C. Reactions were initiated by the addition of the cell-free beta-lactamase, except in the case of preincubation experiments in which the inhibitor and enzyme were incubated together in the assay mixture for 10 minutes before initiation of the reaction by addition of substrate. With the cell-free extracts of Staphylococcus aureus, Escherichia coli, Klebsiella pneumoniae and Pseudomonas aeruginosa, the substrate was ampicillin at 33 micro M (13 microg./ml).
(§2) Cell-free extracts were prepared by sonic treatment (using three 30-s bursts at 4° C. except for S. aureus, which was broken with a French press) of cultures grown in brain heart infusion on a rotary shaker incubator. For the S. aureus, P. aeruginose, and E. cloacae strains, de novo synthesis of beta-lactamase was induced by growing a log-phase culture in the presence of a sublethal concentration of penicillin G at 100, 1,000, and 300 microg./ml, respectively, for 2.5 hr.

[2] = tested on: Pseudomonas aeruginosa 52A104 cell free beta-lactamase; assay: Inhibition of cell-free beta-lactamase (microiodometric), P. aeruginosa 52A104; type: biochemical; details: for beta-lactamase inhibiting activity, in words: Pseudomonas aeruginosa; for % Inhibition Beta-Lactam Hydrolysis: Penicillin G 33 μM, pH 6.5, 37° C.
Method: as §1, with “With the cell-free extracts of Staphylococcus aureus, Escherichia coli, Klebsiella pneumoniae and Pseudomonas aeruginosa, the substrate was ampicillin at 33 micro M (13 microg./ml).” left out
as §2

[3] = tested on: Enterobacter cloacae 67B009; assay: MIC on BHI agar, alone and 1:1 with ampicillin; type: cell-based; details: for MIC: inhibitor alone, 18 hrs. at 37° C.
Method: (§3) The procedure which is followed is the one recommended by the International Collaborative Study on Antibiotic Sensitivity Testing [Ericcson and Sherris, Acta. Pathologica et Microbiologia Scandinav, Supp. 217, Sections A and B: 64-68 (1971)], and employs brain heart infusion (BHI) agar and the inocula replicating device. Overnight growth tubes are diluted 100 fold for use as the standard inoculum (20,000-10,000 cells in approximately 0.002 ml are placed on the agar surface; 20 ml of BHI agar/dish). Twelve 2 fold dilutions of the test compound are employed, with initial concentration of the test drug being 200 mcg/ml. Single colonies are disregarded when reading tubes after 18 hrs. at 37° C. […] These MIC's are then compared with the MIC values obtained with a combination of the given antibiotic and the compound of the formula (6). […] The MIC values of combinations are measured using the method described by Barry and Sabath in "Manual of Clinical Microbiology", edited by Lenette, Spaulding and Truant, 2nd Edition, 1974, American Society for Microbiology.
(§4) For purposes of comparison data on the earlier beta-lactamase inhibitor, penicillanic acid 1,1-dioxide, are included.

Proteus morgani 57G001 = assay: MIC on BHI agar, alone and 1:1 with ampicillin; type: cell-based; details: inhibitor alone; 18 hrs. at 37° C.
Method: as §3, §4

[4] = tested on: Pseudomonas aeruginosa 52A104; assay: MIC on BHI agar, alone and 1:1 with ampicillin; type: cell-based; details: for MIC: inhibitor alone, 18 hrs. at 37° C.
Method: as §3, §4

[5] = tested on: Citrobacter diversus 70C031; assay: MIC on BHI agar, alone and 1:1 with ampicillin; type: cell-based; details: inhibitor alone; 18 hrs. at 37° C.
Method: as §3, §4

[6] = tested on: Escherichia coli-R 51A129; assay: MIC on BHI agar, alone and 1:1 with ampicillin; type: cell-based; details: for MIC: inhibitor alone, 18 hrs. at 37° C.
Method: as §3, §4

[7] = tested on: Staphylococcus aureus 01A400; assay: MIC on BHI agar, alone and 1:1 with ampicillin; type: cell-based; details: inhibitor alone; 18 hrs. at 37° C.
Method: as §3, §4

[8] = tested on: Staphylococcus aureus 01A005; assay: MIC on BHI agar, alone and 1:1 with ampicillin; type: cell-based; details: inhibitor alone; 18 hrs. at 37° C.
Method: as §3, §4

[9] = tested on: Serratia marcescens 63A095; assay: MIC on BHI agar, alone and 1:1 with ampicillin; type: cell-based; details: inhibitor alone; 18 hrs. at 37° C.
Method: as §3, §4

[10] = tested on: Klebsiella pneumoniae 53A079; assay: MIC on BHI agar, alone and 1:1 with ampicillin; type: cell-based; details: for MIC: inhibitor alone, 18 hrs. at 37° C.
Method: as §3, §4

Escherichia coli 51A266 = assay: MIC on BHI agar, alone and 1:1 with ampicillin; type: cell-based; details: for Response: 1:1 with ampicillin (E); for MIC: inhibitor alone, 18 hrs. at 37° C.
Method: as §3, §4

[11] = tested on: a variety of microorganisms; assay: Enhancement of ampicillin effectiveness (MIC of combinations), overall statement; type: cell-based; details: 1:1 with ampicillin; summary of Table II
Method: The procedure which is followed is the one recommended by the International Collaborative Study on Antibiotic Sensitivity Testing [Ericcson and Sherris, Acta. Pathologica et Microbiologia Scandinav, Supp. 217, Sections A and B: 64-68 (1971)], and employs brain heart infusion (BHI) agar and the inocula replicating device. Overnight growth tubes are diluted 100 fold for use as the standard inoculum (20,000-10,000 cells in approximately 0.002 ml are placed on the agar surface; 20 ml of BHI agar/dish). Twelve 2 fold dilutions of the test compound are employed, with initial concentration of the test drug being 200 mcg/ml. Single colonies are disregarded when reading tubes after 18 hrs. at 37° C. The susceptibility (MIC) of the test organism is accepted as the lowest concentration of compound capable of producing complete inhibition of growth as judged by the naked eye. The manner in which the said compounds of the formula (B) increase the effectiveness of a beta-lactam antibiotic can be appreciated by reference to experiments in which the MIC of a given antibiotic alone, and a compound of the formula (6) alone, are measured. […] The MIC values of combinations are measured using the method described by Barry and Sabath in "Manual of Clinical Microbiology", edited by Lenette, Spaulding and Truant, 2nd Edition, 1974, American Society for Microbiology. […]

[12] = inhibitor 1.0 μM, pH 6.5, 37° C.
[13] = inhibitor 16.5 μM, pH 6.5, 37° C.
[14] = inhibitor 66 μM, pH 6.5, 37° C.

SMILES | beta-lactamase inhibiting activity, in words [1] | % Inhibition Beta-Lactam Hydrolysis [1, 12] | % Inhibition Beta-Lactam Hydrolysis [1, 13] | % Inhibition Beta-Lactam Hydrolysis [1, 14] | beta-lactamase inhibiting activity, in words [2] | % Inhibition Beta-Lactam Hydrolysis ([2]; inhibitor 66 μM) | MIC [3] | MIC (Proteus morgani 57G001) | MIC [4] | MIC [5] | MIC [6] | MIC [7] | MIC [8] | MIC [9] | MIC [10] | Response (Escherichia coli 51A266) | MIC (Escherichia coli 51A266) | further results
CC1(C)[C@H](C(=O)O)N2C(=O)[C@@H](CO)[C@H]2S1(=O)=O [A, 6-beta-(Hydroxymethyl)penicillanic acid 1,1-dioxide] | Especially noteworthy | 11.4% | 52.0% | 77.0% | Especially noteworthy | 98.8% | – | – | – | – | – | – | – | – | – | – | – | % Inhibition Beta-Lactam Hydrolysis ([2]; inhibitor 1.0 μM): 21.7%; % Inhibition Beta-Lactam Hydrolysis ([2]; inhibitor 16.5 μM): 93.4%
CC1(C)[C@H](C(=O)O)N2C(=O)C[C@H]2S1(=O)=O [B, Penicillanic acid 1,1-dioxide] | at best a low order of activity | 0% | 0% | 0% | at best a low order of activity | 0% | 100 µg/mL | 200 µg/mL | > 200 µg/mL | 200 µg/mL | 200 µg/mL | 200 µg/mL | 100 µg/mL | 200 µg/mL | 50 µg/mL | N | 25 µg/mL | % Inhibition Beta-Lactam Hydrolysis ([1]; inhibitor 66 μM, preincubation of inhibitor and enzyme 10 minutes): 26%; Response ([3]; 1:1 with ampicillin (E)): S; Response ([10]; 1:1 with ampicillin (E)): S
CC1(C)[C@H](C(=O)O)N2C(=O)[C@@H](CO)[C@H]2S1(=O)=O [C, 6-beta-(Hydroxymethyl)penicillanic acid 1,1-Dioxides] | – | – | – | – | – | – | 100 µg/mL | > 200 µg/mL | > 200 µg/mL | 200 µg/mL | 50 µg/mL | > 200 µg/mL | > 200 µg/mL | 200 µg/mL | 50 µg/mL | N | 50 µg/mL | Response ([4]; 1:1 with ampicillin (E)): S; Response ([6]; 1:1 with ampicillin (E)): S
CC1(C)[C@H](C(=O)O)N2C(=O)[C@@H](CO)[C@H]2S1(=O)=O [compound (6), 6-beta-(hydroxymethyl)penicillanic acid 1,1-dioxide] | – | – | – | – | – | – | – | – | – | – | – | – | – | – | – | – | – | enhanced spectrum and potency with ampicillin, in words [11]: synergy or pronounced synergy
